According to ChEMBL document CHEMBL2157975 (Bioorg Med Chem Lett, 2012):

How the values were obtained:
[1] = biological target: T1, Type-1 angiotensin II receptor (Homo sapiens, UniProt P30556); assay: Inhibition of AT1 receptor
T1 sequence (P30556 whole entry): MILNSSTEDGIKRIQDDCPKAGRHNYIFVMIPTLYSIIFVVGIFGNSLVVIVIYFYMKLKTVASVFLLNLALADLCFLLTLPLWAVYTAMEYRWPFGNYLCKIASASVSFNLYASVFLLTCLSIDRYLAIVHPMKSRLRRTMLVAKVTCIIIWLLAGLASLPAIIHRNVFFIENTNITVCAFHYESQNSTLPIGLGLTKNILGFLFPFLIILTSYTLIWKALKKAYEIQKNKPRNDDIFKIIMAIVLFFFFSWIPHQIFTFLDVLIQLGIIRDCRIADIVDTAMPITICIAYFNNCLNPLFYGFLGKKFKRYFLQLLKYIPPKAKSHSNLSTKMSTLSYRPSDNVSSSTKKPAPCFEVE

[2] = biological target: T2, Apelin receptor (Homo sapiens, UniProt P35414); assay: Antagonist activity at APJ receptor expressed in CHOK1 cells assessed as inhibition of apelin13-induced beta-arrestin recruitment after 90 mins by luminescence assay; type: functional, cell-based, CHO-K1
T2 sequence (P35414 whole entry): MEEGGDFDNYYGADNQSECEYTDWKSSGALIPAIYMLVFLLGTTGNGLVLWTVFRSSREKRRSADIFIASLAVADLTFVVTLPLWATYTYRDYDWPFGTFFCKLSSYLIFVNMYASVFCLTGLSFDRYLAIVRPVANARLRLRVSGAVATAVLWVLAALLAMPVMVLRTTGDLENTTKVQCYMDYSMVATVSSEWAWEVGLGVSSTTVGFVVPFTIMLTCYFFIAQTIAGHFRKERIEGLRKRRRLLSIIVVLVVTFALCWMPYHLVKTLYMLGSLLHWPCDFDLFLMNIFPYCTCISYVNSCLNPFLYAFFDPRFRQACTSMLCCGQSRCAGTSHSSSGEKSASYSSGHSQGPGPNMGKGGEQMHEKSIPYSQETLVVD

[3] = Selectivity ratio of IC50 for AT1 receptor to IC50 for APJ receptor (unknown receptor)
[4] = Drug degradation in aqueous acetonitrile solution assessed as ester bond hydrolysis; type: physicochemical; details: buffer

Compound	IC50 [1]	IC50 [2]	Ratio IC50 [3]	Drug degradation [4]
Cc1ccnc(SCc2cc(=O)c(OC(=O)c3ccccc3Cl)co2)n1	> 79 µM	> 59 µM	–	–
CC(C)(C)c1ccc(C(=O)Oc2coc(CSc3ncccn3)cc2=O)cc1	> 79 µM	> 79 µM	–	–
Cc1ccnc(S(=O)(=O)Cc2cc(=O)c(OC(=O)c3ccc(Cl)c([N+](=O)[O-])c3)co2)n1	> 79 µM	3.21 µM	> 25	–
CCN(CC)S(=O)(=O)c1ccc(C(=O)Oc2coc(CSc3ncccn3)cc2=O)cc1	> 79 µM	> 79 µM	–	–
Cc1ccnc(SCc2cc(=O)c(OCc3ccc(Cl)c([N+](=O)[O-])c3)co2)n1	> 79 µM	> 79 µM	–	–
O=C(Oc1coc(CSc2ncccn2)cc1=O)c1cccc([N+](=O)[O-])c1	> 79 µM	–	–	–
CC(C)Oc1ccc(C(=O)Oc2coc(CSc3ncccn3)cc2=O)cc1	> 79 µM	> 79 µM	–	–
O=C(Oc1coc(CSc2ncccn2)cc1=O)c1ccccc1	> 79 µM	> 79 µM	–	–
COc1cccc(C(=O)Oc2coc(CSc3nccc(C)n3)cc2=O)c1	> 79 µM	> 79 µM	–	–
Cc1cc(C)nc(SCc2cc(=O)c(OS(=O)(=O)c3ccccc3)co2)n1	> 79 µM	> 79 µM	–	–
Cc1ccnc(SCc2cc(=O)c(OC(=O)c3cccc([N+](=O)[O-])c3)co2)n1	> 79 µM	–	–	–
Cc1ccnc(SCc2cc(=O)c(OC(=O)c3ccc(S(=O)(=O)N4CCCC4)cc3)co2)n1	> 79 µM	–	–	–
Cc1ccnc(SCc2cc(=O)c(NC(=O)c3ccc([N+](=O)[O-])cc3)co2)n1	> 79 µM	> 79 µM	–	–
Cc1ccnc(SCc2cc(=O)c(OC(=O)C(C)(C)C)co2)n1	> 79 µM	> 79 µM	–	–
Cc1ccc(C(=O)Oc2coc(CSc3nccc(C)n3)cc2=O)cc1	> 79 µM	> 79 µM	–	–
COc1cc(C(=O)Oc2coc(CSc3ncccn3)cc2=O)c([N+](=O)[O-])cc1OC	> 79 µM	> 79 µM	–	–
Cc1ccnc(SCc2cc(=O)c(OCc3ccccc3)co2)n1	> 79 µM	> 79 µM	–	–
O=C(Oc1coc(CSc2ncccn2)cc1=O)c1ccc(Br)cc1	> 79 µM	–	–	–
COc1ccc(C(=O)Oc2coc(CSc3ncccn3)cc2=O)cc1	> 79 µM	> 79 µM	–	–
O=C(Oc1coc(CSc2ncccn2)cc1=O)c1ccc(Cl)cc1	> 79 µM	–	–	–
N#Cc1ccc(C(=O)Oc2coc(CSc3ncccn3)cc2=O)cc1	> 79 µM	6.59 µM	> 12	–
Cc1ccc(SCc2cc(=O)c(OC(=O)c3ccc(Cl)c([N+](=O)[O-])c3)co2)cc1	> 79 µM	12.8 µM	> 6	–
Cc1ccnc(SCc2cc(=O)c(OC(=O)c3cnco3)co2)n1	> 79 µM	> 79 µM	–	–
O=C(Oc1coc(CSc2ncccn2)cc1=O)c1ccc(C(F)(F)F)cc1	> 79 µM	–	–	–

Compound	IC50 [1]	IC50 [2]	Ratio IC50 [3]	Drug degradation [4]
Cc1ccnc(SCc2cc(=O)c(OC(=O)c3ccc([N+](=O)[O-])cc3)co2)n1	> 79 µM	–	> 23	–
Cc1ccnc(SCc2cc(=O)c(OC(=O)c3cccc(Cl)c3)co2)n1	> 79 µM	> 79 µM	–	–
Cc1ccnc(SCc2cc(=O)c(OC(=O)c3ccco3)co2)n1	> 79 µM	> 79 µM	–	–
Cc1ccnc(SCc2cc(=O)c(OC(=O)c3ccc(Cl)cc3)co2)n1	> 79 µM	> 79 µM	–	–
Cc1ccnc(SCc2cc(=O)c(OC(=O)c3ccc([N+](=O)[O-])o3)co2)n1	> 79 µM	> 79 µM	–	–
Cc1cccc(C(=O)Oc2coc(CSc3nccc(C)n3)cc2=O)c1	> 79 µM	> 79 µM	–	–
O=C(Oc1coc(CSc2ccc(OC(F)(F)F)cc2)cc1=O)c1ccc(Cl)c([N+](=O)[O-])c1	> 79 µM	24 µM	> 3	–
Cc1ccnc(SCc2cc(=O)c(OC(=O)c3ccc(F)cc3)co2)n1	> 79 µM	> 79 µM	–	–
O=C(Oc1coc(CSc2ncccn2)cc1=O)c1ccc(-c2ccccc2)cc1	> 79 µM	> 79 µM	–	–
O=C(Oc1coc(CSc2ncccn2)cc1=O)c1ccc(Cl)c([N+](=O)[O-])c1	> 79 µM	–	> 13	–
O=C(Oc1coc(CSc2ncccn2)cc1=O)c1cc(Cl)ccc1[N+](=O)[O-]	> 79 µM	> 79 µM	–	–
Cc1cc(C)nc(SCc2cc(=O)c(O)co2)n1	> 79 µM	> 79 µM	–	–
Cc1ccc(C(=O)Oc2coc(CSc3ncccn3)cc2=O)cc1[N+](=O)[O-]	> 79 µM	–	> 11	–
O=c1cc(CSc2ccc(F)cc2)occ1O	> 79 µM	> 79 µM	–	–
CCOc1ccc(C(=O)Oc2coc(CSc3ncccn3)cc2=O)cc1	> 79 µM	> 79 µM	–	–
CCCCOc1ccc(C(=O)Oc2coc(CSc3ncccn3)cc2=O)cc1	> 79 µM	> 79 µM	–	–
Cc1ccnc(SCc2cc(=O)c(OC(=O)c3ccc(C)c([N+](=O)[O-])c3)co2)n1	> 79 µM	–	> 17	–
Cc1ccnc(SCc2cc(=O)c(OC(=O)c3ccccc3C)co2)n1	> 79 µM	> 79 µM	–	–
Cc1ccnc(SCc2cc(=O)c(OC(=O)c3ccsc3)co2)n1	> 79 µM	> 79 µM	–	–
Cc1ccc(C(=O)Oc2coc(CSc3ncccn3)cc2=O)cc1C	> 79 µM	> 79 µM	–	–
Cc1ccnc(SCc2cc(=O)c(OC(=O)c3cc(Cl)ccc3[N+](=O)[O-])co2)n1	> 79 µM	–	–	–
COc1ccc(C(=O)Oc2coc(CSc3nccc(C)n3)cc2=O)cc1	> 79 µM	> 79 µM	–	–
Cc1ccnc(SCc2cc(=O)c(OC(=O)c3ccc(Cl)c([N+](=O)[O-])c3)co2)n1	–	–	–	Active
Cc1c(C(=O)Oc2coc(CSc3ncccn3)cc2=O)cccc1[N+](=O)[O-]	> 79 µM	–	–	–

Compound	IC50 [1]	IC50 [2]	Ratio IC50 [3]	Drug degradation [4]
Cc1ccnc(SCc2cc(=O)c(NC(=O)c3ccccc3)co2)n1	> 79 µM	> 79 µM	–	–
Cc1ccc(C(=O)Oc2coc(CSc3ncccn3)cc2=O)cc1	> 79 µM	> 79 µM	–	–
O=C(Oc1coc(CSc2ccccc2)cc1=O)c1ccc(Cl)c([N+](=O)[O-])c1	> 79 µM	9.61 µM	> 8	–
CN(C)S(=O)(=O)c1ccc(C(=O)Oc2coc(CSc3ncccn3)cc2=O)cc1	> 79 µM	> 79 µM	–	–
O=C(Oc1coc(CSc2ccc(Cl)cc2)cc1=O)c1ccc(Cl)c([N+](=O)[O-])c1	> 79 µM	4.53 µM	> 17	–
Cc1ccnc(SCc2cc(=O)c(OC(=O)c3ccc(C#N)cc3)co2)n1	> 79 µM	–	> 7	–
Cc1ccnc(SCc2cc(=O)c(OC(=O)c3ccc(OC(F)(F)F)cc3)co2)n1	> 79 µM	> 79 µM	–	–
Cc1ccnc(SCc2cc(=O)c(O)co2)n1	> 79 µM	> 79 µM	–	–
CC(=O)Oc1coc(CSc2nccc(C)n2)cc1=O	> 79 µM	> 79 µM	–	–
O=C(Oc1coc(CSc2ncccn2)cc1=O)c1ccc(S(=O)(=O)N2CCOCC2)cc1	> 79 µM	> 79 µM	–	–
O=C(Oc1coc(CSc2ncccn2)cc1=O)c1ccc(S(=O)(=O)N2CCCC2)cc1	> 79 µM	> 79 µM	–	–
O=C(Oc1coc(CSc2ncccn2)cc1=O)c1ccc(S(=O)(=O)N2CCCCC2)cc1	> 79 µM	> 79 µM	–	–
Cc1ccnc(SCc2cc(=O)c(OC(=O)c3cccc(C#N)c3)co2)n1	> 79 µM	> 79 µM	–	–
Cc1ccnc(SCc2cc(=O)c(OC(=O)c3cc([N+](=O)[O-])ccc3Cl)co2)n1	> 79 µM	–	–	–
Cc1ccnc(SCc2cc(=O)c(OC(=O)c3ccccc3)co2)n1	> 79 µM	> 79 µM	–	–
O=c1cc(CSc2ncccn2)occ1O	> 79 µM	> 79 µM	–	–
Cc1cc(C)nc(SCc2cc(=O)c(OS(=O)(=O)c3ccc([N+](=O)[O-])cc3)co2)n1	> 79 µM	> 79 µM	–	–
Cc1ccnc(SCc2cc(=O)c(OC(=O)c3ccc(C(F)(F)F)cc3)co2)n1	> 79 µM	–	–	–
O=c1cc(CSc2ccccc2)occ1O	> 79 µM	> 79 µM	–	–
O=C(Oc1coc(CSc2ncccn2)cc1=O)c1ccc(F)cc1	> 79 µM	> 79 µM	–	–
Cc1ccnc(SCc2cc(=O)c(OC(=O)C(C)C)co2)n1	> 79 µM	> 79 µM	–	–
COc1ccc(SCc2cc(=O)c(OC(=O)c3ccc(Cl)c([N+](=O)[O-])c3)co2)cc1	> 79 µM	8.27 µM	> 9	–
